Consider seven compounds from patent publication US20150105252A1, “SUBSTITUTED PYRAZOLES AS HERBICIDES” (E I DU PONT DE NEMOURS AND COMPANY, priority 2013, published 2015).

The subject of one test is arrowleaf sida. Kind of test: Test F postemergence. Type of test: in vivo, Sida rhombifolia. Particulars: scale 0 to 100. An excerpt:
(§1) Seeds of plant species selected from corn (Zea mays), soybean (Glycine max), velvetleaf (Abutilon theophrasti), lambsquarters (Chenopodium album), wild poinsettia (Euphorbia heterophylla), pigweed, palmer (palmer pigweed, Amaranthus palmeri), common waterhemp (Amaranthus rudis), surinam grass (Brachiaria decumbens), large crabgrass (Digitaria sanguinalis), crabgrass, Brazil (Brazilian crabgrass, Digitaria horizontalis), fall panicum (Panicum dichotomiflorum), giant foxtail (Setaria faberii), green foxtail (Setaria viridis), goosegrass (Eleusine indica), johnsongrass (Sorghum halepense), common ragweed (Ambrosia elation), barnyardgrass (Echinochloa crus-galli), southern sandbur (Cenchrus echinatus), arrowleaf sida (Sida rhombifolia), Italian ryegrass (Lolium multiflorum), dayflower, VA (Virginia (VA) dayflower, Commelina virginica), field bindweed (Convolvulus arvensis), cocklebur (common cocklebur, Xanthium strumarium), morningglory (Ipomoea coccinea), nightshade (eastern black nightshade, Solanum ptycanthum), kochia (Kochia scoparia), yellow nutsedge (Cyperus esculentus), and hairy beggarticks (Bidens pilosa), were planted into a silt loam soil and treated preemergence with test chemicals formulated in a non-phytotoxic solvent mixture which included a surfactant.
(§2) At the same time, plants from these crop and weed species and also horseweed (Canada horseweed, Conyza canadensis), smartweed (ladysthumb smartweed, Polygonum persicaria), waterhemp_RES1, (ALS & Triazine resistant common waterhemp, Amaranthus rudis), and waterhemp_RES2, (ALS & HPPD resistant common waterhemp, Amaranthus rudis) were treated with postemergence applications of test chemicals formulated in the same manner. Plants ranged in height from 2 to 18 cm for postemergence treatments (1- to 4-leaf stage). Treated plants and controls were maintained in a greenhouse for 14 to 21 days, after which time all species were compared to controls and visually evaluated. Plant response ratings, summarized in Table F, are based on a scale of 0 to 100 where 0 is no effect and 100 is complete control. A dash (-) response means no test result.

Another test has as its system fall panicum. The test is described as follows: Test F postemergence. Type of test: in vivo, Panicum dichotomiflorum. To be noted: scale 0 to 100.
Excerpt: as §1, §2

In another test the test system is Italian ryegrass. Kind of test: Test F postemergence. The format is in vivo, Lolium multiflorum. To be noted: scale 0 to 100.
Excerpt: as §1, §2

For a further test, the system named is kochia. The test is described as follows: Test F postemergence. The format is in vivo, Kochia scoparia. To be noted: scale 0 to 100.
Excerpt: as §1, §2

In another test the test system is quackgrass. The test is described as follows: Test E preemergence. Type of test: in vivo, Elytrigia repens. Particulars: 21 days, scale 0 to 100. From the text: (§3) Seeds of plant species selected from bermudagrass (Cynodon dactylon), Surinam grass (Brachiaria decumbens), crabgrass, large (large crabgrass, Digitaria sanguinalis), crabgrass, naked (naked crabgrass, Digitaria nuda), foxtail, green (green foxtail, Setaria viridis), johnsongrass (Sorghum halepense), kochia (Kochia scoparia), morningglory (pitted morningglory, Ipomoea lacunosa), nutsedge, purple (purple nutsedge, Cyperus rotundus), ragweed (common ragweed, Ambrosia elation), mustard, black (black mustard, Brassica nigra), guineagrass (Panicum maximum), dallisgrass (Paspalum dilatatum), barnyardgrass (Echinochloa crus-galli), sandbur (southern sandbur, Cenchrus echinatus), sowthistle (common sowthistle, Sonchus oleraceous), ryegrass, Italian (Italian ryegrass, Lolium multiflorum), signalgrass (broadleaf signalgrass, Brachiaria platyphylla), dayflower, VA (Virginia (VA) dayflower, Commelina virginica), bluegrass (annual bluegrass, Poa annua), quackgrass (Elytrigia repens), mallow (common mallow, Malva sylvestris), buckwheat, wild (wild buckwheat, Polygonum convolvulus), leafy spurge (Euphorbia esula), common chickweed (Stellaria media), wild poinsettia (Euphorbia heterophylla), pigweed, palmer (palmer pigweed, Amaranthus palmeri), and pigweed (redroot pigweed, Amaranthus retroflexus) were planted into a blend of loam soil and sand and treated preemergence with test chemicals formulated in a non-phytotoxic solvent mixture which included a surfactant.
(§4) Treated plants and controls were maintained in a greenhouse for 21 days, after which time all species were compared to controls and visually evaluated. Plant response ratings, summarized in Table E, are based on a scale of 0 to 100 where 0 is no effect and 100 is complete control. A dash (-) response means no test result.

A further test concerns nutsedge, purple. Kind of test: Test E preemergence. The format is in vivo, Cyperus rotundus. Particulars: 21 days, scale 0 to 100.
Excerpt: as §3, §4

In the next test the test system is morningglory. Kind of test: Test E preemergence. The format is in vivo, Ipomoea lacunosa. To be noted: 21 days, scale 0 to 100.
Excerpt: as §3, §4

A further test has as its system guineagrass. The test is described as follows: Test E preemergence. Type of test: in vivo, Panicum maximum. To be noted: 21 days, scale 0 to 100.
Excerpt: as §3, §4

In another test the test system is smartweed. The test is described as follows: Test F postemergence. Particulars: 500 g ai/ha, scale 0 to 100. Type of test: in vivo, Polygonum persicaria.
Excerpt: as §1, §2

The subject of the next test is galium. The test is described as follows: Test A postemergence. Type of test: in vivo, Galium aparine. In short, it runs like this:
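Seeds were sown in a loam soil–sand blend and given a directed soil spray preemergence; postemergence plants at 2–10 cm, one- to two-leaf stage, were sprayed with compound in non-phytotoxic solvent with surfactant. After about 10 days in a greenhouse, injury was visually rated against untreated controls (0 = no effect, 100 = complete control).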

Setting [1] is: Postemergence, 500 g ai/ha, 0 to 100 scale (0 no effect, 100 complete control).
Setting [2] is: postemergence, 125 g ai/ha, about 10 days, visual rating on 0 to 100 scale (0 no effect, 100 complete control).

As for `CCc1cc(C(=O)NCC(F)(F)F)nn1Cc1ccnc(C(F)(F)F)c1` [Compound 78, 5-ethyl-N-(2,2,2-trifluoroethyl)-1-[[(2-trifluoromethyl)-4-pyridinyl]methyl]-1H-pyrazole-3-carboxamide], the “Plant response rating, Arrowleaf Sida” value was determined as 50 in the test on arrowleaf sida (Postemergence, 31 g ai/ha); 75 in the test with arrowleaf sida (Postemergence, 125 g ai/ha); 80 in the test with arrowleaf sida (Postemergence, 250 g ai/ha); 60 in the test on arrowleaf sida (postemergence, 62 g ai/ha); 95 with arrowleaf sida (postemergence, 500 g ai/ha). Moreover, the “Plant response rating, Fall Panicum” value in the test on fall panicum (Postemergence, 31 g ai/ha) was 10; with fall panicum (Postemergence, 125 g ai/ha), 50; in the test with fall panicum (Postemergence, 250 g ai/ha), 90; with fall panicum (postemergence, 62 g ai/ha), 20; in the test on fall panicum (postemergence, 500 g ai/ha), 95. Moreover, the “Plant response rating, Italian Ryegrass” value in the test with Italian ryegrass (Postemergence, 31 g ai/ha) stood at 0; in the test on Italian ryegrass (Postemergence, 125 g ai/ha), 40; in the test on Italian ryegrass (Postemergence, 250 g ai/ha) it was 60; with Italian ryegrass (postemergence, 62 g ai/ha), 10; in the test on Italian ryegrass (postemergence, 500 g ai/ha), 90. Further, the “Plant response rating, Kochia” value is given as 65 in the test with kochia (Postemergence, 31 g ai/ha); 90 with kochia (Postemergence, 125 g ai/ha); 90 with kochia (Postemergence, 250 g ai/ha); 90 in the test on kochia (postemergence, 62 g ai/ha); 95 with kochia (postemergence, 500 g ai/ha). The “Plant response rating, Quackgrass” value in the test with quackgrass (16 g ai/ha) was 60; with quackgrass (31 g ai/ha) it was 95; with quackgrass (62 g ai/ha), 100; in the test with quackgrass (125 g ai/ha) it was 100; in the test with quackgrass (250 g ai/ha), 100. Moreover, the “Plant response rating, Nutsedge, Purple” value with nutsedge, purple (16 g ai/ha) is recorded as 35; with nutsedge, purple (31 g ai/ha) it was 75; with nutsedge, purple (62 g ai/ha), 98; in the test on nutsedge, purple (125 g ai/ha) it was 100; in the test on nutsedge, purple (250 g ai/ha), 100. In addition, the “Plant response rating, Morningglory” value in the test with morningglory (16 g ai/ha) came to 50; in the test on morningglory (31 g ai/ha), 70; in the test with morningglory (62 g ai/ha) it was 90; with morningglory (125 g ai/ha), 100; with morningglory (250 g ai/ha), 100. The “Plant response rating, Guineagrass” value stood at 90 with guineagrass (16 g ai/ha); 100 in the test on guineagrass (31 g ai/ha); 100 in the test on guineagrass (62 g ai/ha); 100 with guineagrass (125 g ai/ha); 100 in the test on guineagrass (250 g ai/ha). In the test on smartweed, the “Plant response rating, Smartweed” value is given as 100.

Consider `CCc1cc(C(=O)NC(C)C)nn1Cc1ccnc(C(F)(F)F)c1` [Compound 103], for which the “Plant response rating, Quackgrass” value came out at 95 with quackgrass (16 g ai/ha); 98 in the test on quackgrass (31 g ai/ha); 100 with quackgrass (62 g ai/ha); 100 with quackgrass (125 g ai/ha); 100 with quackgrass (250 g ai/ha). The “Plant response rating, Nutsedge, Purple” value with nutsedge, purple (16 g ai/ha) was found to be 15; with nutsedge, purple (31 g ai/ha), 75; in the test with nutsedge, purple (62 g ai/ha) it was 90; with nutsedge, purple (125 g ai/ha), 98; in the test on nutsedge, purple (250 g ai/ha), 100. Further, the “Plant response rating, Morningglory” value with morningglory (16 g ai/ha) is given as 95; in the test with morningglory (31 g ai/ha) it was 100; in the test with morningglory (62 g ai/ha), 100; with morningglory (125 g ai/ha), 100; with morningglory (250 g ai/ha), 100. The “Plant response rating, Guineagrass” value in the test with guineagrass (16 g ai/ha), in the test with guineagrass (31 g ai/ha), with guineagrass (62 g ai/ha), in the test with guineagrass (125 g ai/ha) and with guineagrass (250 g ai/ha) was 100 each time.

Consider `CCONC(=O)c1cc(CC)n(Cc2cc(C(F)(F)F)no2)n1` [Compound 125], for which the “Galium plant response rating” value in the test on galium (setting [1]) was found to be 90; with galium (setting [2]), 60.

For `CCOc1cc(C(=O)NC2CC2)nn1Cc1ccnc(OC(F)F)c1` [Compound 133], the figures for the “Galium plant response rating” value in the test with galium (setting [1]) and with galium (setting [2]) were 90 and 80, respectively.

As for `CCOc1cc(C(=O)NC(C)C)nn1Cc1ccnc(C(F)(F)F)c1` [Compound 188], the “Plant response rating, Arrowleaf Sida” value in the test with arrowleaf sida (Postemergence, 31 g ai/ha) turned out to be 50; with arrowleaf sida (Postemergence, 125 g ai/ha) it was 60; with arrowleaf sida (Postemergence, 250 g ai/ha), 70; with arrowleaf sida (postemergence, 62 g ai/ha) it was 50; in the test on arrowleaf sida (postemergence, 500 g ai/ha) it was 80. Also, the “Plant response rating, Fall Panicum” value with fall panicum (Postemergence, 31 g ai/ha) amounted to 20; with fall panicum (Postemergence, 125 g ai/ha), 55; in the test on fall panicum (Postemergence, 250 g ai/ha), 75; in the test on fall panicum (postemergence, 62 g ai/ha) it was 20; in the test with fall panicum (postemergence, 500 g ai/ha), 90. Besides, the “Plant response rating, Italian Ryegrass” value in the test on Italian ryegrass (Postemergence, 31 g ai/ha) is 5; in the test on Italian ryegrass (Postemergence, 125 g ai/ha), 30; with Italian ryegrass (Postemergence, 250 g ai/ha), 60; in the test on Italian ryegrass (postemergence, 62 g ai/ha), 10; in the test on Italian ryegrass (postemergence, 500 g ai/ha), 85. The “Plant response rating, Kochia” value in the test on kochia (Postemergence, 31 g ai/ha) is given as 40; in the test on kochia (Postemergence, 125 g ai/ha), 95; in the test on kochia (Postemergence, 250 g ai/ha), 90; in the test with kochia (postemergence, 62 g ai/ha), 60; in the test with kochia (postemergence, 500 g ai/ha), 95. The “Plant response rating, Smartweed” value with smartweed came out at 95.

In the case of `CCOc1cc(C(=O)NC2CC2)nn1Cc1ccnc(C(F)(F)F)c1` [Compound 189], the “Plant response rating, Quackgrass” value in the test with quackgrass (4 g ai/ha) stood at 0; in the test on quackgrass (8 g ai/ha) it was 0; in the test with quackgrass (16 g ai/ha) it was 35; in the test on quackgrass (31 g ai/ha) it was 75; in the test on quackgrass (62 g ai/ha), 100. For the same compound, the “Plant response rating, Nutsedge, Purple” value with nutsedge, purple (4 g ai/ha) is reported as 0; with nutsedge, purple (8 g ai/ha), 10; in the test with nutsedge, purple (16 g ai/ha), 50; in the test with nutsedge, purple (31 g ai/ha) it was 50; in the test with nutsedge, purple (62 g ai/ha), 85. The “Plant response rating, Morningglory” value in the test on morningglory (4 g ai/ha) is 0; in the test on morningglory (8 g ai/ha), 30; with morningglory (16 g ai/ha) it was 90; with morningglory (31 g ai/ha), 100; with morningglory (62 g ai/ha) it was 100. For the same compound, the “Plant response rating, Guineagrass” value is listed as 30 in the test with guineagrass (4 g ai/ha); 75 in the test with guineagrass (8 g ai/ha); 100 with guineagrass (16 g ai/ha); 100 in the test with guineagrass (31 g ai/ha); 100 in the test with guineagrass (62 g ai/ha).

For the compound `CCc1cc(C(=O)NCC(F)(F)F)nn1Cc1cc(OC(F)F)nn1C` [Compound 206], the “Galium plant response rating” value was found to be 20 in the test on galium (Postemergence, 125 g ai/ha, 0 to 100 scale, 0 no effect, 100 complete control) and 80 with galium (setting [1]).
